Literature values, collected in patent publication US12351592B2 (UNIVERSIDAD SANTIAGO DE CALI, priority 2019, dated 2025).

Structure (SMILES): CN(C)C(=N)N=C(N)N [Metformin]
- distribution volume (Vd) (in vivo): 654±358 I
- access to erythrocytes (slow access): 5 % of the blood dose
